Source: ChEMBL document CHEMBL4699558, “Lead optimization of 8-(methylamino)-2-oxo-1,2-dihydroquinolines as bacterial type II topoisomerase inhibitors” (Bioorg Med Chem, 2020)
≈ marks a conversion by molar mass, not a printed value.

Key:
DNA gyrase = DNA gyrase (Escherichia coli, UniProt P0AES4+P0AES6); test: Inhibition of Escherichia coli DNA gyrase by measuring supercoiling activity incubated for 60 mins by fluorescence based assay; assay type: protein-complex assay
[1] = Inhibition of Escherichia coli topoisomerase IV by measuring relaxation activity incubated for 30 mins by fluorescence based assay
Escherichia coli [2] = test: Antibacterial activity against Escherichia coli ATCC 25922 by CLSI method; assay type: functional
Escherichia coli [3] = test: Antibacterial activity against Escherichia coli ATCC 25922 in presence of PAbetaN by CLSI method; assay type: functional
Staphylococcus aureus [4] = test: Antibacterial activity against Staphylococcus aureus ATCC 29213 by CLSI method; assay type: functional
Staphylococcus aureus [5] = test: Antibacterial activity against Methicillin-resistant Staphylococcus aureus by CLSI method; assay type: functional

SMILES	IC50 (DNA gyrase) [nM]	IC50 [1] [nM]	MIC (Escherichia coli [2]) [µg/mL]	MIC (Escherichia coli [3]) [µg/mL]	MIC (Staphylococcus aureus [4]) [µg/mL]	MIC50 (Staphylococcus aureus [5]) [µg/mL]	MIC90 (Staphylococcus aureus [5]) [µg/mL]
CCCCCN(C)Cc1cc(C(=O)O)ccc1NC(=O)c1cc2cc(F)cc(NC)c2[nH]c1=O	0.21	41.4	4 (≈ 8.54 µM)	≤ 0.03	0.5 (≈ 1.07 µM)		
CNCCNc1c(C(=O)Nc2ccc(C(=O)O)cc2)c(=O)[nH]c2c(NC)cc(F)cc12.O=CO	2.09		> 16	8	> 16		
CNc1cc(F)cc2c(NCCN3CCOCC3)c(C(=O)Nc3ccc(C(=O)O)cc3)c(=O)[nH]c12.O=CO	14.6		> 64	0.12	32		
CNc1cc(F)cc2cc(C(=O)Nc3ccc(CO)cc3CN(C)C3CCCCC3)c(=O)[nH]c12	1.92		16 (≈ 34.3 µM)	0.06	4 (≈ 8.57 µM)		
Cc1onc(-c2ccccc2)c1C(=O)N[C@@H]1C(=O)N2[C@@H]1SC(C)(C)[C@@H]2C(=O)O [OXACILLIN]						> 128	> 128
CNc1cc(F)cc2cc(C(=O)Nc3ccc(C(=O)NCCN)cc3)c(=O)[nH]c12.Cl	9.4		> 8	> 8	> 8		
CNc1cc(F)cc2c(O)c(C(=O)Nc3ccc(C(=O)NS(=O)(=O)N(C)C)cc3CN3CCCCC3)c(=O)[nH]c12	4.44		64 (≈ 111 µM)	0.06			
CNc1cc(F)cc2cc(C(=O)Nc3ccc(C(=O)O)cc3CNCCO)c(=O)[nH]c12.Cl	129		> 64	2	> 64		
CNc1cc(F)cc2c(NCCN)c(C(=O)Nc3ccc(C(=O)O)cc3)c(=O)[nH]c12.O=CO	0.94		> 16	4	> 16		
CNc1cc(F)cc2c(NCC3(N)CCC3)c(C(=O)Nc3ccc(C(=O)O)cc3)c(=O)[nH]c12.O=CO	2.15		> 32	0.25	> 32		
CNc1cc(F)cc2cc(C(=O)Nc3ccc(C(=O)O)cc3CN(CCN)C3CCCCC3)c(=O)[nH]c12.O=C(O)C(F)(F)F	3.68		> 64	16	> 64		
CNc1cc(F)cc2cc(C(=O)Nc3ccc(C(=O)O)cc3CNC3CCCCC3)c(=O)[nH]c12.O=C(O)C(F)(F)F	0.26		32	0.5	16		
CNCCc1c(C(=O)Nc2ccc(C(=O)O)cc2)c(=O)[nH]c2c(NC)cc(F)cc12.O=C(O)C(F)(F)F	109		> 8	> 8	> 8		
CNc1cc(F)cc2cc(C(=O)Nc3ccc(C(=O)N(C)CCN4CCOCC4)cc3)c(=O)[nH]c12	6.36		> 16	0.12	16 (≈ 33.2 µM)		
CNc1cc(F)cc2cc(C(=O)Nc3ccc(C(N)=O)cc3CN(C)C3CCCCC3)c(=O)[nH]c12	2.48		> 32	≤ 0.03	> 32		
CNc1cc(F)cc2c(N[C@H]3C[C@@H](N)C3)c(C(=O)Nc3ccc(C(=O)O)cc3)c(=O)[nH]c12.O=CO	2.66		> 32	1	> 32		
CNc1cc(F)cc2c(NCC3CCNCC3)c(C(=O)Nc3ccc(C(=O)O)cc3)c(=O)[nH]c12.O=CO	1.31		> 32	0.5	> 32		
CNc1cc(F)cc2c(NCC3CNC3)c(C(=O)Nc3ccc(C(=O)O)cc3)c(=O)[nH]c12.O=CO	0.66		> 16		> 16		
CNc1cc(F)cc2c(NCCCN)c(C(=O)Nc3ccc(C(=O)O)cc3)c(=O)[nH]c12.O=CO	0.52		> 8	2	> 8		
CNc1cc(F)cc2cc(C(=O)Nc3ccc(C(=O)O)c(O)c3)c(=O)[nH]c12	2.05		> 32	1	> 32		
CNCCCc1c(C(=O)Nc2ccc(C(=O)O)cc2)c(=O)[nH]c2c(NC)cc(F)cc12.O=C(O)C(F)(F)F	131		> 32	> 32			
